Results on one molecule are retold here after patent EP0627009B1, “MACROCYCLIC LACTONES AND A PRODUCTIVE STRAIN THEREOF” (PFIZER INC., priority 1992, dated 1993).

Values after ≈ are worked out from the molar mass of the structure shown.

The subject of assay [1] is human mixed lymphocyte reaction (MLR). Nature of the assay: human mixed lymphocyte reaction (MLR) activity. Conditions: read-out: MLR activity(IC50, mg/ml). In kind it is cell-based. The protocol:
The measurement of the human MLR activity of the macrocyclic lactones of this invention carried out by standard procedures which are described in the literature (D. P. Dubey et al., in Manual of Clinical Laboratory Immunology, 3rd Ed., pp847-858, 1986). The cytotoxicities of the macrocyclic lactones were measured by the standard procedure (T. Mosmann, J., J. Immunol. Methods, 65, 55-63, 1983). The concentration of their cytotoxicities is several ten times higher than that of their MLR activities.

The test system of assay [2] is Candida albicans. Nature of the assay: anti-Candida albicans activity, agar plate dilution method with paper disk, inhibition zone. Conditions: Concentration 40 mg/disk; paper disk 8 mm; agar medium for neomycin assay. The format is cell-based. The text has this:
The paper disk (8 mm, Advantic) and agar medium for neomycin assay (Difco) were used in the tests. As the novel macrocyclic lactones inhibit the growth of Candida albicans, they have an antifungal activity.

Take `CO[C@H]1C[C@@H]2CC[C@@H](C)[C@@](O)(O2)C(=O)C(=O)N2CCCC[C@H]2C(=O)O[C@H]([C@H](C)C[C@@H]2CC[C@@H](O)[C@H](OC)C2)CC(=O)[C@H](C)/C=C(\C)[C@@H](O)[C@@H](OC)C(=O)[C@H](C)C[C@H](C)/C=C/C=C/C=C/1C` [Rapamycin, rapamycin]: the IC50 in assay [1] was 0.01 µg/mL (≈ 0.0109 µM). Further, the “The diameter of inhibition zone (mm)” value in assay [2] was 25 mm.
